The text below walks through data of patent publication US20030021763A1, “Method for the treatment and/or prophylaxis of diseases caused by IL-12” (Gruenenthal GmbH., priority 1999, published 2003).

Several values for one entry are separate records, joined by “and”; a condition that tells them apart may be missing. Identical values can stand only once.

The test system of this test is IL-12 production of LPS-activated monocytes. Nature of the test: Stimulation of human monocytes with lipopolysaccharide to secrete IL-12 (IL-12 sandwich ELISA of culture supernatants). The class given is cell-based. The conditions noted are these: for inhibition at 0.05 µg/mL / inhibition at 0.5 µg/mL / inhibition at 5 µg/mL: Homo sapiens, Monocyte, read-out: % inhibition of the IL-12 production of the control without inhibitors; for inhibition at 0.05 µg/mL / inhibition at 0.5 µg/mL / inhibition at 5 µg/mL / % inhibition of the IL-12 production of the control without inhibitors / IL-12 production: LPS 20 μg/ml, 24 hours; for action on the IL-12 production of LPS-stimulated monocytes: Tables 2 to 4. How it is done: Stimulation of Human Monocytes with Lipopolysaccharide to Secrete IL-12
Human monocytes were isolated from peripheral blood mononuclear cells (PBMC) which had been obtained from heparinized full blood by a Ficoll density gradient centrifugation. To that end, the PBMC were incubated with a monoclonal antibody directed against the monocyte-specific surface molecule CD14 and to which superparamagnetic microbeads (Miltenyi Biotech, Bergisch Gladbach) were coupled. For the positive selection of the labelled monocytes from the PBMC cell mixture, the total cell suspension was applied to a column having a ferromagnetic carrier matrix, and the column was placed in a magnetic field. The cells charged with microbeads were thus bonded to the carrier matrix, while unlabelled cells passed through the column and were discarded. After removing the matrix from the magnetic field, the antibody-charged cells were eluted by flushing the now demagnetised column with buffer. The purity of the resulting CD14-positive monocyte population was approximately from 95 to 98%. The monocytes were incubated for one hour at 37° C. and 5% CO2 in a density of 10^6cells/ml culture medium (RPMI, supplemented with 10% foetal calf serum) with the test substances dissolved in DMSO. 20 μg/ml of LPS from E. coli were then added. After 24 hours, cell-free culture supernatants were collected and tested for their IL-12 content.
The concentration of IL-12 in the cell culture supernatants was determined by sandwich ELISA's using two anti-IL-12 monoclonal antibodies (Biosource Europe, Fleurus, Belgium). A reference standard curve with human IL-12 was included. The detection limit of the IL-12 ELISA was 10 pg/ml.
On the technique in general: In an ELISA, binding on a coated surface is turned into a signal by an enzyme label.

[1] abbreviates: test substance 0.05 μg/ml, IL-10 0 pg/ml.
The mark [2] stands for this setting: test substance 0.5 μg/ml, IL-10 0 pg/ml.
Setting [3] is: test substance 5 μg/ml, IL-10 0 pg/ml.
Where [4] appears, read: test substance 0.05 μg/ml combined with IL-10 5 pg/ml.
Setting [5] is: test substance 0.05 μg/ml combined with IL-10 50 pg/ml.
Setting [6] is: test substance 0.5 μg/ml combined with IL-10 5 pg/ml.
[7] abbreviates: test substance 0.5 μg/ml combined with IL-10 50 pg/ml.
Where [8] appears, read: test substance 5 μg/ml combined with IL-10 5 pg/ml.
[9] abbreviates: test substance 5 μg/ml combined with IL-10 50 pg/ml.
Setting [10] is: test substance 0.005 μg/ml combined with IL-10 5 pg/ml.
[11] abbreviates: test substance 0.005 μg/ml combined with IL-10 50 pg/ml.
[12] abbreviates: test substance 0.005 μg/ml, IL-10 0 pg/ml.

In general, inhibition refers to the drop in the measured response relative to a control, in per cent. Take `O=C1CCC(N2C(=O)c3ccccc3C2=O)C(=O)N1` (centres unmarked) [Thalidomide, 2-(2,6-dioxo-piperidin-3-yl)-isoindole-1,3-dione, reference compound]: the “action on the IL-12 production of LPS-stimulated monocytes” value (from here on “action on the IL-12 production”) is “dose-dependent inhibitory action”. In addition, under setting [1], the inhibition at 0.05 µg/mL worked out at 45% and the IL-12 production came to 3369 pg/mL. Besides, under setting [2], the inhibition at 0.5 µg/mL is 67% and the IL-12 production was 2037 pg/mL. For the same compound, under setting [3], the inhibition at 5 µg/mL came out at 76% and the IL-12 production stood at 1481 pg/mL. Under setting [4], the “% inhibition of the IL-12 production of the control without inhibitors” value (from here on “% inhibition … of the control without inhibitors”) was determined as 68% and the IL-12 production worked out at 1958 pg/mL. Besides, under setting [5], the “% inhibition … of the control without inhibitors” value turned out to be 87% and the IL-12 production amounted to 809 pg/mL. Besides, under setting [6], the “% inhibition … of the control without inhibitors” value came out at 81% and the IL-12 production stood at 1147 pg/mL. For the same compound, under setting [7], the “% inhibition … of the control without inhibitors” value turned out to be 90% and the IL-12 production turned out to be 618 pg/mL. Also, under setting [8], the “% inhibition … of the control without inhibitors” value worked out at 83% and the IL-12 production was determined as 1057 pg/mL. Moreover, under setting [9], the “% inhibition … of the control without inhibitors” value is on record as 93% and the IL-12 production came out at 447 pg/mL.

As usually defined, the EC50 is the midpoint of the concentration-response curve. The low end stands for greater potency, the high end for weaker potency. Take “IL-10: anti-inflammatory cytokine originally described as cytokine synthesis inhibitory factor”: the concentration for a half-maximal effect (EC50) worked out at 0.05 ng/mL and the “action on the IL-12 production” value was “dose-dependent inhibitory action”. Further, under “IL-10 5 pg/ml alone (thalidomide compound 0 μg/ml)”, the IL-12 production was 5637 pg/mL and 4393 pg/mL and 4581 pg/mL. The “% inhibition … of the control without inhibitors” value (IL-10 50 pg/ml alone (thalidomide compound 0 μg/ml)) is 58% and 47% and 81%.

With `O=C1CCC(N2Cc3ccccc3C2=O)C(=O)N1` (centres unmarked) [EM 12, 3-(1-oxo-1,3-dihydro-isoindol-2-yl)-piperidine-2,6-dione], the “action on the IL-12 production” value is “dose-dependent inhibitory action”. Further, under setting [1], the inhibition at 0.05 µg/mL was 47% and the IL-12 production is 3478 pg/mL. Besides, under setting [2], the inhibition at 0.5 µg/mL turned out to be 68% and the IL-12 production came out at 2098 pg/mL. Further, under setting [3], the inhibition at 5 µg/mL is 66% and the IL-12 production was found to be 2220 pg/mL. Also, under setting [4], the “% inhibition … of the control without inhibitors” value turned out to be 55% and the IL-12 production was 2944 pg/mL. Under setting [5], the “% inhibition … of the control without inhibitors” value was 91% and the IL-12 production is 589 pg/mL. In addition, under setting [6], the “% inhibition … of the control without inhibitors” value was 78% and the IL-12 production came to 1462 pg/mL. For the same compound, under setting [7], the “% inhibition … of the control without inhibitors” value is listed as 90% and the IL-12 production is 649 pg/mL. In addition, under setting [8], the “% inhibition … of the control without inhibitors” value stood at 81% and the IL-12 production came out at 1271 pg/mL. For the same compound, under setting [9], the “% inhibition … of the control without inhibitors” value is 92% and the IL-12 production is 546 pg/mL.

In the case of `CC1(N2C(=O)c3ccccc3C2=O)CCC(=O)NC1=O` (stereo not drawn) [EM 978, α-methyl thalidomide], the “action on the IL-12 production” value is reported as “dose-dependent inhibitory action”. Moreover, under setting [10], the “% inhibition … of the control without inhibitors” value came to 40% and the IL-12 production was 2922 pg/mL. Under setting [11], the “% inhibition … of the control without inhibitors” value turned out to be 53% and the IL-12 production stood at 2302 pg/mL. Under setting [12], the “% inhibition … of the control without inhibitors” value is reported as 7% and the IL-12 production came to 4571 pg/mL. Under setting [4], the “% inhibition … of the control without inhibitors” value is 61% and the IL-12 production turned out to be 1897 pg/mL. Besides, under setting [5], the “% inhibition … of the control without inhibitors” value was determined as 68% and the IL-12 production is 1555 pg/mL. For the same compound, under setting [1], the “% inhibition … of the control without inhibitors” value was 35% and the IL-12 production stood at 3161 pg/mL. Under setting [6], the “% inhibition … of the control without inhibitors” value is 94% and the IL-12 production worked out at 272 pg/mL. Moreover, under setting [7], the “% inhibition … of the control without inhibitors” value worked out at 96% and the IL-12 production was 191 pg/mL. For the same compound, under setting [2], the “% inhibition … of the control without inhibitors” value is given as 91% and the IL-12 production is 439 pg/mL. Further, the “concentration lower than in the case of thalidomide or EM 12 to achieve the same effects” value (versus thalidomide or EM 12) is listed as 10 times lower.
